From patent US5736578A, “Ethylamido fluorenes and improved method of making same” (Bristol-Myers Squibb Company, priority 1996, dated 1998)

Assays:
human ML1A = target: T1, human ML1A (Homo sapiens, UniProt P48039); assay: Melatonergic binding (2-[125I]-iodomelatonin displacement, NIH 3T3 cell membranes); settings: human ML1A in NIH 3T3 membranes; 100 pM 2-[125I]-iodomelatonin; 37° C., 1 hour; read-out: Binding Affinity (IC50)
T1 construct: expressed in transfected cells; pcDNA3; membrane homogenates
T1 sequence (P48039 whole entry): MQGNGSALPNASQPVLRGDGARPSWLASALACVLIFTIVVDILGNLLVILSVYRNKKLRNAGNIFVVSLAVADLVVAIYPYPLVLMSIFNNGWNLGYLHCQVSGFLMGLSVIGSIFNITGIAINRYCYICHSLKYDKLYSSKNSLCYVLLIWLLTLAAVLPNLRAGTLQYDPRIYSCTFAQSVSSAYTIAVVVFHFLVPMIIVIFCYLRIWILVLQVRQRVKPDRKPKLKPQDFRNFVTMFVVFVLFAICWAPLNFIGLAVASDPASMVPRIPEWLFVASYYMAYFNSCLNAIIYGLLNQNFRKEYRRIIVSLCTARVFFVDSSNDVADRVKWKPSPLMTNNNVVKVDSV
Procedure: Measurement of Melatonergic Binding
(a) 50 mM Tris buffer containing 12.5 mM MgCl2 and 2 mM EDTA (pH 7.4 at 37° C.).
(b) Wash buffer: 20 mM Tris base containing 2 mM MgCl2 (pH 7.4 at room temperature).
(d) 2-[^125 I]-iodomelatonin (100 pM final concn.). Source: NEN
2.Membrane preparation. The receptor cDNA (human ML1A) was subcloned into pcDNA3 and introduced into NIH 3T3 cells using Lipofectamine. Transformed NIH 3T3 cells resistant to geneticin were isolated and single colonies expressing high levels of 2-[^125 I]-iodomelatonin binding were isolated and characterized. Cell pellets were frozen at -80° C. for further use. For preparing membrane homogenates, pellets are thawed on ice, and resuspended in TME buffer, Tris base, MgCl2, EDTA (pH 7.4 at 37° C.), supplemented with aprotinin, leupeptin, and phenylmethlysulfonylfluoride. The cells were then homogenized using a dounce homogenizer, and centrifuged. The resulting pellet was resuspended with a dounce homogenizer in TME and frozen. On the day of assay, the small aliquot was thawed on ice and resuspended in TME buffer.
3. Incubation: 37° C. for 1 hour. Reaction is terminated by filtration.
The procedure was based on that disclosed in: Reppert, S. M., Weaver, D. R., and Ebisawa, R. (1994), Neuron, 13, 1177-1185 (1994).

circadian rhythms = settings: rats; in words; cited from earlier work
[1] = in words; cited from earlier work
[2] = tested on: jet-lag related sleep disturbances; settings: humans; in words; cited from earlier work
[3] = tested on: Cyclic AMP Accumulation in Intact Cells: Melatonin; assay: Functional activity: cyclic AMP accumulation in intact cells (forskolin-stimulated); type: cell-based; settings: 10 min, read-out: I.A. (Intrinsic Activity) = Emax (experimental compound)/Emax (melatonin)
Procedure: Measurement of Functional Activity
Cyclic AMP Accumulation in Intact Cells: Melatonin
The media was removed from cell flask and washed with Hank's salt solution or PBS, as appropriate. The cells were detached from flask. Enough media was added so that the concentration of cells is 4×10^5 /ml when counted with a hemocytometer. Dialyzed or heat inactivated fetal bovine serum (FBS) was used in the media when plating the cells. 1 ml of cell suspension was put into each well, then 2 mls of media. Cells were incubated overnight.
1. Stock solution: plain media (no serum or additives)+20 mM HEPES.
2. IBMX solution: media/HEPES+1 mM IBMX.
3. Assay solution: 90% stock solution+10% IBMX solution.
Each well gets 3 mls of assay solution for preincubation and 3 mls for the assay. Each test condition is done in triplicate.
a) Basal assay solution+DMSO
b) Forskolin stimulation: 10 μM final concentration.
All tests were done in triplicate at 37° C. Plates with cells were kept in a shallow 37° C. water bath throughout the reaction. Media was taken from the wells and 3 ml of preincubation media was added. After 10 min, that solution was removed and 3 mls of drug solution was added. After 10 min, the media was removed and reaction stopped with HCl. Samples set for at least an hour at room temperature. 1 ml from each dish was taken and put into a microfuge tube and spun to remove floating cells. After dilution to 1:100 for RIA, a radioimmuno-assay was done.

Structure (SMILES)	IC50 (human ML1A)	further results
C=CC(=O)NCCC1c2ccccc2-c2ccc(OC)cc21 (centres unmarked) [Example 11, N-[2-(2-methoxyfluoren-9-yl)ethyl]-2-propenamide]	< 100 nM	
COc1ccc2[nH]cc(CCNC(C)=O)c2c1 [melatonin, N-acetyl-5-methoxytryptamine]		effect of exogenous administration on circadian rhythms (circadian rhythms): synchronize circadian rhythms in rats; oral bioavailability [1]: often low and variable; treatment of jet-lag related sleep disturbances [2]: used to treat jet-lag related sleep disturbances
CCC(=O)NCCC1c2cc(OC)ccc2-c2ccc(OC)cc21 [Example 5, N-[2-(2,7-dimethoxyfluoren-9-yl)ethyl]propanamide]	< 10 nM	Emax [3]: 114%
COc1ccc2c(c1)C(CCNC(=O)C1CCC1)c1cc(OC)ccc1-2 [Example 13, N-[2-(2,7-dimethoxyfluoren-9-yl)ethyl]cyclobutane carboxamide]	< 10 nM	
CCOc1ccc2c(c1)C(CCNC(=O)CC)c1cc(OC)ccc1-2 (centres unmarked) [Example 29, N-[2-(2-ethoxy-7-methoxyfluoren-9-yl)-ethyl]propanamide]	< 100 nM	
COc1ccc2c(c1)C(CCNC(=O)C1CC1)c1cc(OC)ccc1-2 [Example 7, N-[2-(2,7-dimethoxyfluoren-9-yl)ethyl]cyclopropane carboxamide]		Emax [3]: 102%
COc1ccc2c(c1)C(CCCNC(C)=O)c1cc(OC)ccc1-2 [Example 20, N-[3-(2,7-dimethoxyfluoren-9-yl)prop-1-yl]acetamide]	< 100 nM	
COc1ccc2c(c1)C(CCNC(=O)C(C)(C)C)c1cc(OC)ccc1-2 [Example 14, N-[2-(2,7-dimethoxyfluoren-9-yl)ethyl]-2,2-dimethyl propanamide]	< 500 nM	
COCC(=O)NCCC1c2cc(OC)ccc2-c2ccc(OC)cc21 [Example 9, N-[2-(2,7-dimethoxyfluoren-9-yl)ethyl]methoxyacetamide]	< 100 nM	
CCCC(=O)NCCC1c2cc(OC)ccc2-c2ccc(OC)cc21 [Example 10, N-[2-(2,7-dimethoxyfluoren-9-yl)ethyl]butanamide]		Emax [3]: 115%
CCCC(=O)NCCC1c2ccccc2-c2ccc(OC)cc21 (centres unmarked) [Example 6, N-[2-(2-methoxyfluoren-9-yl)ethyl]butanamide]	< 100 nM	
